Test results published in patent US4388311A, “Method for the induction of menses” (G. D. Searle & Co., priority 1982, dated 1983).
Values joined by “and” are separate entries in the source; they are usually repeats but may differ in a detail not shown here. Equal entries are not always repeated.

Assays:
pregnancy in rats [1] = test: Pregnancy termination in rats, compounds administered intragastrically for four days (Table 1); type: in vivo, rat; settings: for Serum Progesterone ng/ml + S.E. / Serum Progesterone (Percent Control): serum day 11, 24 hours after initial injection
Protocol: (§1) The following tables list the results for a compound of Formula IV as compared with a control of previously known 2α-cyano-17β-hydroxy-3-oxo-4,4,17α-trimethylandrost-5-end(Cyanoketone) for termination of pregnancy.
^1 Compounds were administered intragastrically once daily on days 10
through 13 of pregnancy in a vehicle consisting of PEG400, propylene
glycol and 100 percent ethanol (50:40:10, v:v:v). Serum for progesterone
determination was drawn on day 11 of pregnancy, 24 hours after the initia
injection of compound. The animals were autopsied on day 14 of pregnancy.

pregnancy in rats [2] = test: Termination of pregnancy in rats, compounds administered subcutaneously (Table 2); type: in vivo, rat; settings: for Serum Progesterone (Percent Control) / Serum Progesterone ng/ml + S.E.: serum day 11, 24 hours after initial injection
Protocol: as §1
^1 Compounds given subcutaneously in corn oil vehicle once daily on
days 10 through 13 of pregnancy. Serum for progesterone determination was
drawn on day 11 of pregnancy, 24 hours after the initial injection of
compound. The animals were autopsied on day 14 of pregnancy.
^2 Serum progesterone values determined by RIA at Interlab Associates

[3] = 1 mg/kg/day intragastrically once daily days 10-13 of pregnancy, autopsy day 14
[4] = 2 mg/kg/day intragastrically days 10-13 of pregnancy
[5] = 2 mg/kg/day intragastrically once daily days 10-13 of pregnancy, autopsy day 14
[6] = 4 mg/kg/day intragastrically days 10-13 of pregnancy, 4 mg/kg/day
[7] = 4 mg/kg/day intragastrically once daily days 10-13 of pregnancy, autopsy day 14, 4 mg/kg/day
[8] = 8 mg/kg/day intragastrically days 10-13 of pregnancy
[9] = 8 mg/kg/day intragastrically once daily days 10-13 of pregnancy, autopsy day 14
[10] = 16 mg/kg/day intragastrically days 10-13 of pregnancy
[11] = 16 mg/kg/day intragastrically once daily days 10-13 of pregnancy, autopsy day 14
[12] = 32 mg/kg/day intragastrically days 10-13 of pregnancy
[13] = 32 mg/kg/day intragastrically once daily days 10-13 of pregnancy, autopsy day 14
[14] = 64 mg/kg/day intragastrically days 10-13 of pregnancy
[15] = 64 mg/kg/day intragastrically once daily days 10-13 of pregnancy, autopsy day 14
[16] = 128 mg/kg/day intragastrically days 10-13 of pregnancy
[17] = 128 mg/kg/day intragastrically once daily days 10-13 of pregnancy, autopsy day 14
[18] = 1 mg/kg/day subcutaneously days 10-13 of pregnancy
[19] = 1 mg/kg/day subcutaneously in corn oil once daily days 10-13 of pregnancy, autopsy day 14
[20] = 2 mg/kg/day subcutaneously days 10-13 of pregnancy

## CC1(C)C(=O)[C@H](C#N)C[C@@]2(C)C1=CC[C@@H]1[C@@H]2CC[C@@]2(C)[C@H]1CC[C@]2(C)O [Cyanoketone, 2α-cyano-17β-hydroxy-3-oxo-4,4,17α-trimethylandrost-5-end]
Pregnancy in rats [1]; 1 mg/kg/day intragastrically days 10-13 of pregnancy
  Serum Progesterone ng/ml + S.E.: 47.3 + 3.5 ng/ml
Pregnancy in rats [1]; [3]
  Adrenal Wt. mg + SE: 74.9 + 4.1 mg
  Fetal Viability: Normal Fetuses/Implantation Sites: 49/54
  Fetal Viability: Normal Fetuses/Implantation Sites (Percent): 91%
  Number of Rats Pregnant/Number of Rats Treated: 5/5
  Number of Rats Pregnant/Number of Rats Treated (Percent): 100%
Pregnancy in rats [1]; [4]
  Serum Progesterone (Percent Control): 111 Percent Control
  Serum Progesterone ng/ml + S.E.: 52.5 + 3.7 ng/ml
Pregnancy in rats [1]; [5]
  Adrenal Wt. mg + SE: 77.1 + 5.3 mg
  Fetal Viability: Normal Fetuses/Implantation Sites: 61/84
  Fetal Viability: Normal Fetuses/Implantation Sites (Percent): 73%
  Number of Rats Pregnant/Number of Rats Treated: 6/7
  Number of Rats Pregnant/Number of Rats Treated (Percent): 86%
Pregnancy in rats [1]; [6]
  Serum Progesterone (Percent Control): 75 Percent Control and 72 Percent Control
  Serum Progesterone ng/ml + S.E.: 35.5 + 6.2 ng/ml and 33.8 + 3.8 ng/ml
Pregnancy in rats [1]; [7]
  Adrenal Wt. mg + SE: 75.0 + 3.5 mg and 76.9 + 3.7 mg
  Fetal Viability: Normal Fetuses/Implantation Sites: 0/92 and 44/97
  Number of Rats Pregnant/Number of Rats Treated: 1/8 and 5/8
Pregnancy in rats [1]; [8]
  Serum Progesterone (Percent Control): 64 Percent Control
  Serum Progesterone ng/ml + S.E.: 30.2 + 3.8 ng/ml
Pregnancy in rats [1]; [9]
  Adrenal Wt. mg + SE: 65.7 + 2.5 mg
  Fetal Viability: Normal Fetuses/Implantation Sites: 13/110
  Fetal Viability: Normal Fetuses/Implantation Sites (Percent): 12%
  Number of Rats Pregnant/Number of Rats Treated: 3/10
  Number of Rats Pregnant/Number of Rats Treated (Percent): 30%
Pregnancy in rats [1]; [10]
  Serum Progesterone (Percent Control): 88 Percent Control
  Serum Progesterone ng/ml + S.E.: 41.4 + 7.1 ng/ml
Pregnancy in rats [1]; [11]
  Adrenal Wt. mg + SE: 74.5 + 3.1 mg
  Fetal Viability: Normal Fetuses/Implantation Sites: 25/103
  Fetal Viability: Normal Fetuses/Implantation Sites (Percent): 24%
  Number of Rats Pregnant/Number of Rats Treated: 4/10
  Number of Rats Pregnant/Number of Rats Treated (Percent): 40%
Pregnancy in rats [1]; [12]
  Serum Progesterone (Percent Control): 67 Percent Control
  Serum Progesterone ng/ml + S.E.: 31.5 + 6.7 ng/ml
Pregnancy in rats [1]; [13]
  Adrenal Wt. mg + SE: 66.4 + 3.3 mg
  Fetal Viability: Normal Fetuses/Implantation Sites: 19/101
  Fetal Viability: Normal Fetuses/Implantation Sites (Percent): 19%
  Number of Rats Pregnant/Number of Rats Treated: 2/9
  Number of Rats Pregnant/Number of Rats Treated (Percent): 22%
Pregnancy in rats [1]; [14]
  Serum Progesterone (Percent Control): 40 Percent Control
  Serum Progesterone ng/ml + S.E.: 19.0 + 3.7 ng/ml
Pregnancy in rats [1]; [15]
  Adrenal Wt. mg + SE: 83.5 + 4.8 mg
  Fetal Viability: Normal Fetuses/Implantation Sites: 24/128
  Fetal Viability: Normal Fetuses/Implantation Sites (Percent): 19%
  Number of Rats Pregnant/Number of Rats Treated: 2/11
  Number of Rats Pregnant/Number of Rats Treated (Percent): 18%
Pregnancy in rats [1]; [16]
  Serum Progesterone (Percent Control): 94 Percent Control
  Serum Progesterone ng/ml + S.E.: 44.3 + 5.3 ng/ml
Pregnancy in rats [1]; [17]
  Adrenal Wt. mg + SE: 72.0 + 2.5 mg
  Fetal Viability: Normal Fetuses/Implantation Sites: 85/99
  Fetal Viability: Normal Fetuses/Implantation Sites (Percent): 85%
  Number of Rats Pregnant/Number of Rats Treated: 8/9
  Number of Rats Pregnant/Number of Rats Treated (Percent): 89%
Pregnancy in rats [2]; [18]
  Serum Progesterone (Percent Control): 124 Percent Control
  Serum Progesterone ng/ml + S.E.: 54.1 + 2.6 ng/ml
Pregnancy in rats [2]; [19]
  Adrenal Wt. mg + SE: 83.4 + 4.0 mg
  Fetal Viability: Normal Fetuses/Implantation Sites: 80/82
  Fetal Viability: Normal Fetuses/Implantation Sites (Percent): 98%
  Number of Rats Pregnant/Number of Rats Treated: 7/7
  Number of Rats Pregnant/Number of Rats Treated (Percent): 100%
Pregnancy in rats [2]; [20]
  Serum Progesterone (Percent Control): 94 Percent Control
  Serum Progesterone ng/ml + S.E.: 40.8 + 2.2 ng/ml
